From patent US11957671B2, “Benzodioxane modulators of leukotriene A4 hydrolase (LTA4H) for prevention and treatment of aging-associated diseases” (Alkahest, Inc., priority 2021, dated 2024)

What was measured:
aged C57BL6 mice [1] = test: Rotarod; format: in vivo, mouse; conditions: 19 days of dosing
Protocol: Mice were trained by allowing to run on the rotarod at 5 RPM speed setting on the i-Therm CTR-44 Rotarod for 5 minutes, if the mouse fell off it was put back on until it was able to complete minutes without falling off. After 15 minutes, if the mouse is unable to stay on the rotarod for a continuous 5 minutes, the mouse is excluded from analysis. Mice were then given 3 trials where the speed was increased from 5 RPM to 40 RPM over 90 seconds; the time at which the mouse fell off was recorded for each trial. Inter-trial interval is at least 15 minutes to allow the mice adequate rest. The rotarod is cleaned with 70% ethanol between trials.

[2] = system: purified endothelial cells from the brains of aged C57BL/6 mice; test: Microbulk qPCR of endothelial genes; format: in vivo, mouse; conditions: 1 month bid P.O., 1 mg/kg Compound 1 or 2.5 mg/kg SC57461A
Protocol: (§1) Downregulation of the detrimental genes Bsg, Gbp4, and CXCL12 in purified endothelial cells from the brains of mice treated with LTA4H inhibitors Compound 1 or SC57461A were compared to those of vehicle treated mice. Gene expression was measured by qPCR from 500 sorted endothelial cells and was normalized to GAPDH control.
Aged C57BL/6 mice (21 months of age) were treated for 1 month bid P.O. with vehicle, 1 mg/kg Compound 1, or 2.5 mg/kg SC57461A (n=3 mice per treatment group). One cortical cap (cortex and hippocampus) from each mouse was isolated and cells were dissociated using Miltenyi Neutral Dissociation Kit (#130-092-628). Cells were sorted using Sony Multi-Application Cell Sorter MA900 into clean, RNAase free 200 uL PCR strip tube with 5 uL RNAlater at a concentration of 500 cells per tube. RNA was isolated follow kit protocol for Qiagen RNeasy Micro Kit (#74004). cDNA was synthesized using SuperScript III Kit Protocol and qPCR assays were run using TaqMan or SYBR green primers.
as §1, with “beneficial gene, Plat,” for “detrimental genes Bsg, Gbp4, and CXCL12”

[3] = system: aged wild type (WT; C57BL/6) mice; test: Y-Maze; format: in vivo, mouse; conditions: 10 mg/kg PO daily
Protocol: A large Y-maze test assessed short-term memory of the familiarity of a specific context. Mice were brought to the experimental room for at least 30 min of acclimation to the experimental room conditions (dim lighting) prior to testing. For the initial training trial, the mouse was placed at the end of one arm of a large Y-maze designated “start arm” (arm length: 15 inches). The third arm of the maze was blocked off, allowing the mouse to explore two of the three arms freely (“start arm” and “familiar arm”) for 5 min. Each arm contained spatial cues. Three hours later, the mouse was placed back into the maze in the “start arm,” and allowed to explore all three arms with the third arm unblocked (“novel arm”). Movements in and out of each arm were tracked using automated tracking software (ANY-maze). Testing was performed under dim lighting, and the apparatus was cleaned with 70% ethanol between trials. The time spent and number of entireties into the “novel arm” and “familiar arm” were analyzed, as well as total distance travelled and velocity as measures of general locomotor activity.
(§2) Three independent cohorts of aged wild type (WT; C57BL/6) mice between twenty to twenty-two months of age (20-22 mo) were homogenized into two (2) groups by body weight, total distance travelled in the open field test, and average velocity in the open field test. Group 1 was administered vehicle control PO daily. Group 2 was administered 10 mg/kg of the LTA4H inhibitor Compound 1 PO daily. Both groups were dosed for either 10 days or 4 weeks daily. Behavioral assays were run during the last week of dosing and animals were sacrificed at the end of the study for histological and molecular assays.

Notch3R169C mice = test: CADASIL transgenic mouse model Notch3R169C, 4 months dosing (Example 24); format: in vivo; conditions: 1 mg/kg PO BID 4 months
Protocol: Notch3^R169C mice (5-month-old) were treated PO BID with either vehicle or Compound 1 (1 mg/kg) for 4 months and littermate WT controls were treated with vehicle for 4 months. Prior to sacrifice, syringes were prepped with 7.5 μL of 1000 U/mL heparin. To increase LTB4 plasma levels, whole blood was stimulated with calcimycin prior to generation of plasma. First, 100 μL of 10 mM calcimycin (Sigma #C7522) in DMSO was diluted into 10 mL of PBS and sonicated for 10 minutes at 37° C. In a 96 well polystyrene plate (Corning 354657), 160 μL of mouse whole blood was collected for each animal and incubated for 15 minutes in a 37° C./5% CO2 (Panasonic MCO-230AICUV-PA). Next, 40 μL of the 100 μM calcimycin working solution was added to each well and incubated again for 30 minutes at 37° C./5% CO2. After incubation, the plates were centrifuged for 10 minutes at 4° C. at 1500 rpm. Plasma was diluted 1:10 and analyzed for LTB4 using LTB4 ELISA Kit (Enzo Life Sciences, ADI-901-068) in duplicate following the included kit protocol. The final readings were collected on a BMG LABTECH CLARIOstar plate reader at 405 nm. Brain tissue was dissected for cortex. One third of the cortex was homogenized in RIPA buffer (EMD Millipore 20-188) using an Omni BeadRuptor 24. Lysates were centrifuged for 10 mins at 10,000 g at 4° C. to collect the supernatant. Protein concentration was determined by BCA (Thermo Fisher 23225) and then diluted in PBS to approximately 10 mg/ml. Samples were sent to Eve Technologies for analysis.

[4] = system: aged wild type (WT; C57BL/6) mice; test: Iba-1 histology in hippocampus; format: in vivo, mouse; conditions: 4 weeks of dosing
Protocol: Brains were collected following saline perfusion and separated by mid-sagittal slice with one-half drop fixed in freshly prepared 4% PFA. PFA was changed to 30% sucrose 24-48 hours later. A second change to 30% sucrose occurred 24 hours later. Brain tissue was sectioned or lysed and analyzed for GFAP, AQP4, or IBA1 by standard histological methods. Images were acquired using a confocal microscope or Axioscan slide scanner.
as §2

aged C57BL6 mice [5] = test: Nesting; format: in vivo, mouse; conditions: 10 days of dosing
Protocol: All nesting material was removed from home cage and mice were given 2 fresh nestlets 12-18 hours prior to scoring. The nest was carefully scored on a scale of 0-5 by an experimenter blinded to treatment group: 0 undisturbed, 1 disturbed, 2 flat, 3 cup, 4 incomplete dome, 5 complete dome.

nesting building score (aged C57BL6 mice [5]): no change in nesting building score
SMILES: O=C(O)C1CCN(Cc2ccc([C@H]3COc4ccccc4O3)cc2)CC1 [Example 1, 1-{4-[(2S)-2,3-dihydro-1,4-benzodioxin-2-yl]benzyl}piperidine-4-carboxylic acid]
average time before falling on the rotarod (aged C57BL6 mice [1]): no change in average time before falling
Bsg gene expression [2]: down regulation of Bsg gene expression
CXCL12 gene expression [2]: down regulation of CXCL12 gene expression
Gpb4 gene expression [2]: down regulation of Gpb4 gene expression
Plat gene expression [2]: up regulation of Plat gene expression
entries into the N and F arms during testing ([3]; after 12 days of treatment): enter the N and F arms equally
percent time spent in the novel (N) or familiar (F) arms during testing ([3]; after 12 days of treatment): significantly more time in the novel arm
percent time spent in the novel (N) or familiar (F) arms during testing ([3]; after 18 days of treatment): significantly improved
percentage of entries into the N and F arms ([3]; after 18 days of treatment): enter the novel arm significantly more than the familiar arm
percentage of entries into the N and F arms ([3]; after 26 days of treatment): enter the novel arm significantly more than the familiar arm
IL-2 levels in plasma (Notch3R169C mice): significantly reduced
IL-7 levels in brain cortex lysate (Notch3R169C mice): significantly reduced
LTB4 levels in stimulated plasma (Notch3R169C mice): significantly reduced
LTB4 levels in unstimulated plasma (Notch3R169C mice): no change in LTB4 levels detected between groups
Iba-1 percent thresholded area in the hippocampus [4]: reduction in Iba-1 percent thresholded area
